Results from patent US20230263459A1, “DEVICE AND METHOD FOR PREVENTING SUDDEN DEATH AND PROTECTING OXYGEN STATUS DURING SEIZURE ACTIVITY” (priority 2020, published 2023).
“Also recorded” adds a separate entry of the source. Counter-ions that a name gives are not always drawn. Like-named read-outs stand apart in the source and are kept apart here.

How the values were obtained:
[1] = tested on: rat model of complete airway occlusion; conditions: for number of breath attempts during occlusion: FIG. 7D, hydrochloride; for time to respiratory arrest (mean): air control 53.6
Procedure: Adult male Sprague Dawley rats (AGE median=63, mean=88 days; WEIGHT median=306, mean=329 grams; Envigo Chicago, Ill.) were housed in AAALAC-accredited facilities and maintained on a 12 hour light:dark cycle with a temperature of 23° C. and humidity of 55%, monitored daily, and had unrestricted access to water and food. Urethane (1.5 g/kg ip) was used for anesthesia in all animals.
ECG RECORDINGS—Limb-lead ECG was recorded using copper strips coated with conductive gel wrapped around both forelimbs and the base of the tail. Signals were amplified and filtered to pass 1 Hz to 1 kHz (Model 1800 AC amplifier with headstages; A-M Systems, Sequim, Wash.) and digitized at 2 kHz (Microl401 controlled by Spike 2 software; Cambridge Electronic Design, Cambridge, UK). Rhythm was assessed by reviewing P waves and associated QRS complexes for variations in wave shape, beat-to-beat intervals, and atrial-ventricular coupling.
The raw pulsatile waveform of the pulse oximeter was digitized (2 kHz) with other signals.
INSPIRATORY AIRWAY PRESSURES—A pressure transducer (CyQ, Columbus Instruments, Columbus, Ohio) was connected to the sidearm of a T-shaped tracheal tube (see infra). Inspiratory pressures during complete airway occlusion were measured relative to those observed during baseline breathing. Signals were digitized along with other signals recorded at the same time.
TRACHEAL IMPLANTS—A T-shaped tracheal tube was placed through an incision between cartilaginous rings of the trachea after the trachea was exposed in the neck. The distal arm was “sealed” in the trachea with suture around the trachea, compressing it against the outside wall of the implant.
CONTROLLED AIRWAY OCCLUSION—Obstructive apnea was produced with controlled airway occlusion. The exterior arm in the straight path with the implanted arm served breathing or could be occluded. A pressure transducer on the tracheal tube sidearm recorded forces developed during either normal breathing with the tracheal tube open to the atmosphere or during complete closure of the open port.
Injected volumes were 12.5 ml/kg and averaged 4.25 f 1.00 ml/animal (mean, standard deviation). Fluoxetine hydrochloride (cat #1279804) was obtained from Sigma Aldrich Inc. (St. Louis, Mo.).
Gas was delivered at ˜4 liters/min. In all animals, the occlusion was left in place until 10 seconds after the point of respiratory arrest, which was defined as the time of the peak of the last breath attempt.

[2] = tested on: audiogenic seizure prone mice; conditions: cited from earlier work
[3] = tested on: audiogenic seizure-prone mice; conditions: oxygen, FIG. 3
From the text: In audiogenic seizure-prone mice, seizures are stereotyped and consist of a running phase, a clonic phase, and a tonic phase that included hindlimb extension.

[4] = fluoxetine 25 mg/kg IP vs saline

SMILES: CNCCC(Oc1ccc(C(F)(F)F)cc1)c1ccccc1 (centres unmarked) [fluoxetine, Fluoxetine hydrochloride]
- attempts needed to effect resuscitation after respiratory arrest ([1]; SSRI group vs saline, bolus gas delivery): required more attempts on average
- increase in the time to respiratory arrest ([1]; fluoxetine 25 mg/kg IP one hour post-injection vs saline): 28%
- rate of desaturation during occlusion [1, 4]: did not significantly alter
- inspiratory forces generated during breath attempts while occluded ([1]; fluoxetine 25 mg/kg IP vs saline, FIG. 7B): no apparent differences
- number of breath attempts during occlusion [1, 4]: no difference
- number of breath attempts during occlusion ([1]; fluoxetine 25 mg/kg IP vs saline, listed as Fluoxetine): nearly equivalent
- respiratory rate ([1]; fluoxetine 25 mg/kg IP vs saline, FIGS. 7E, 7F): significantly slowed
- time to respiratory arrest (average) ([1]; fluoxetine 25 mg/kg IP, 60 min before occlusion, n=8, saline control 49.8/49.9): 63.8 s
- minimum oxygen saturation ([1]; fluoxetine 25 mg/kg IP, saline group 37%, not statistically significant): 34%
- protection against death ([2]; multiple strains of audiogenic seizure prone mice (Faingold 2011, 2014; Zeng 2015)): protect against death

SMILES: O=O [oxygen]
- time in tonic hindlimb extension phase [3]: unchanged
- time to respiratory arrest [3]: prolonged
- total seizure time [3]: unchanged
- increase in the time to respiratory arrest ([1]; 50% oxygen/50% air 30 seconds prior to occlusion vs air): 19%
- time to respiratory arrest (mean) ([1]; 50% oxygen/50% air for 30 seconds prior to airway occlusion, n=7): 63.9 s
- number of breath attempts ([1]; 50% oxygen/50% air for 30 seconds vs air): significantly increased
- delay in desaturation onset ([1]; animals breathing oxygen versus air, FIG. 1C): ~40 s
- increase in the time to respiratory arrest ([1]; oxygen 30 seconds prior to occlusion vs air): 52%
- increase in the time to respiratory arrest ([1]; oxygen 5 minutes prior to occlusion vs air): 65%
- minimum pulse oximetry level ([1]; oxygen animals, n=12, mean, standard deviation): 37%±11
- time to respiratory arrest (mean) ([1]; oxygen atmosphere for 5 minutes prior to airway occlusion): 88.4 s
- time to respiratory arrest relative to room air ([1]; oxygen enriched atmosphere vs room air, FIG. 1A): nearly doubled; also recorded: nearly twice as long
- total number of breath attempts during complete airway closure ([1]; oxygen prior to occlusion vs air, FIG. 1D): significantly greater
- time to respiratory arrest (mean) ([1]; oxygen stream for only 30 seconds prior to airway occlusion (brief O2), n=10): 81.6 s
- duration of sustained high level of oxygen saturation before decline ([1]; oxygen-breathing rat, pulse oximetry, FIGS. 2A-2B): about 30 seconds
- time of last breath attempt (respiratory arrest) after occlusion onset ([1]; single animal, FIG. 2A, oxygen for five minutes before occlusion, air animal 53): 100 s
- onset of ST segment elevation, bradycardia and premature ventricular contractions post-occlusion ([1]; single animal, FIG. 2A, oxygen for five minutes before occlusion, air animal about 40): about 80 seconds
- protection from normally fatal audiogenic seizures ([2]; DBA/2 mice, seizures in an oxygen atmosphere (Venit 2004; Willott 1976)): protected
- survival of animals ([2]; oxygen treatment (Venit 2004; Willott 1976)): 100%
